Results from ChEMBL document CHEMBL4052714, “Synthesis and antibacterial activity of novel 4″-O-(1-aralkyl-1,2,3-triazol-4-methyl-carbamoyl) azithromycin analogs” (2017).
In brackets after ≈: the same amount, converted by molar mass.

Key:
Format in all cases: functional
[1] = system: Pseudomonas aeruginosa; assay: Antibacterial activity against Pseudomonas aeruginosa ATCC 27853
[2] = system: Streptococcus pyogenes; assay: Antibacterial activity against erythromycin-susceptible Streptococcus pyogenes isolate S2
[3] = system: Streptococcus pneumoniae; assay: Antibacterial activity against erythromycin-resistant Streptococcus pneumoniae B1 expressing ermB gene
[4] = system: Streptococcus pneumoniae; assay: Antibacterial activity against erythromycin-resistant Streptococcus pneumoniae AB11 expressing ermB/mefA gene
[5] = system: Streptococcus pneumoniae; assay: Antibacterial activity against erythromycin-susceptible Streptococcus pneumoniae ATCC 49619
[6] = system: Streptococcus pyogenes; assay: Antibacterial activity against erythromycin-resistant Streptococcus pyogenes isolate R2
[7] = system: Staphylococcus aureus; assay: Antibacterial activity against methicillin-susceptible Staphylococcus aureus ATCC 29213
[8] = system: Staphylococcus aureus; assay: Antibacterial activity against erythromycin-susceptible Staphylococcus aureus ATCC 25923
[9] = system: Escherichia coli; assay: Antibacterial activity against Escherichia coli ATCC 25922
[10] = system: Streptococcus pneumoniae; assay: Antibacterial activity against erythromycin-resistant Streptococcus pneumoniae A22072 expressing mefA gene
[11] = system: Streptococcus pneumoniae; assay: Potency index, ratio of azithromycin MIC to compound MIC for erythromycin-resistant Streptococcus pneumoniae B1 expressing ermB gene
[12] = system: Streptococcus pneumoniae; assay: Potency index, ratio of azithromycin MIC to compound MIC for erythromycin-resistant Streptococcus pneumoniae AB11 expressing ermB/mefA gene
[13] = system: Streptococcus pneumoniae; assay: Potency index, ratio of azithromycin MIC to compound MIC for erythromycin-resistant Streptococcus pneumoniae A22072 expressing mefA gene
[14] = system: Streptococcus pneumoniae; assay: Potency index, ratio of clarithromycin MIC to compound MIC for erythromycin-resistant Streptococcus pneumoniae A22072 expressing mefA gene
[15] = system: Streptococcus pneumoniae; assay: Potency index, ratio of clarithromycin MIC to compound MIC for erythromycin-resistant Streptococcus pneumoniae AB11 expressing ermB/mefA gene
[16] = system: Streptococcus pneumoniae; assay: Potency index, ratio of clarithromycin MIC to compound MIC for erythromycin-resistant Streptococcus pneumoniae B1 expressing ermB gene

SMILES | MIC [1] [µg/mL] | MIC [2] [µg/mL] | MIC [3] [µg/mL] | MIC [4] [µg/mL] | MIC [5] [µg/mL] | MIC [6] [µg/mL] | MIC [7] [µg/mL] | MIC [8] [µg/mL] | MIC [9] [µg/mL] | MIC [10] [µg/mL] | Ratio [11] | Ratio [12] | Ratio [13] | Ratio [14] | Ratio [15] | Ratio [16]
CC[C@H]1OC(=O)[C@H](C)[C@@H](O[C@H]2C[C@@](C)(OC)[C@@H](OC(=O)NCc3cn(Cc4c(Cl)cccc4Cl)nn3)[C@H](C)O2)[C@H](C)[C@@H](O[C@@H]2O[C@H](C)C[C@H](N(C)C)[C@H]2O)[C@](C)(O)C[C@@H](C)CN(C)[C@H](C)[C@@H](O)[C@]1(C)O | 32 (≈ 31 µM) | 0.03 (≈ 0.0291 µM) | 0.5 (≈ 0.484 µM) | 0.5 (≈ 0.484 µM) | 0.5 (≈ 0.484 µM) | 32 (≈ 31 µM) | 16 (≈ 15.5 µM) | 1 (≈ 0.969 µM) | 32 (≈ 31 µM) | 0.5 (≈ 0.484 µM) |  |  |  |  |  | 
CC[C@H]1OC(=O)[C@H](C)[C@@H](O[C@H]2C[C@@](C)(OC)[C@@H](OC(=O)NCc3cn(Cc4cccc(C)c4)nn3)[C@H](C)O2)[C@H](C)[C@@H](O[C@@H]2O[C@H](C)C[C@H](N(C)C)[C@H]2O)[C@](C)(O)C[C@@H](C)CN(C)[C@H](C)[C@@H](O)[C@]1(C)O | 32 (≈ 32.7 µM) | 0.03 (≈ 0.0307 µM) | 1 (≈ 1.02 µM) | 1 (≈ 1.02 µM) | 0.5 (≈ 0.512 µM) | 32 (≈ 32.7 µM) | 16 (≈ 16.4 µM) | 1 (≈ 1.02 µM) | 32 (≈ 32.7 µM) | 1 (≈ 1.02 µM) |  |  |  |  |  | 
CC[C@H]1OC(=O)[C@H](C)[C@@H](O[C@H]2C[C@@](C)(OC)[C@@H](OC(=O)NCc3cn(Cc4cccc(C)c4)nn3)[C@H](C)O2)[C@H](C)[C@@H](O[C@@H]2O[C@H](C)C[C@H](N(C)C)[C@H]2O)[C@](C)(O)C[C@@H](C)CN(C)[C@H](C)[C@H]2OC(=O)O[C@@]21C | 64 (≈ 63.8 µM) | 0.25 (≈ 0.249 µM) | 4 (≈ 3.99 µM) | 2 (≈ 1.99 µM) | 1 (≈ 0.997 µM) | 64 (≈ 63.8 µM) | 32 (≈ 31.9 µM) | 2 (≈ 1.99 µM) | 128 (≈ 128 µM) | 2 (≈ 1.99 µM) |  |  |  |  |  | 
CC[C@H]1OC(=O)[C@H](C)[C@@H](O[C@H]2C[C@@](C)(OC)[C@@H](OC(=O)NCc3cn(Cc4c(Cl)cccc4Cl)nn3)[C@H](C)O2)[C@H](C)[C@@H](O[C@@H]2O[C@H](C)C[C@H](N(C)C)[C@H]2O)[C@](C)(O)C[C@@H](C)CN(C)[C@H](C)[C@H]2OC(=O)O[C@@]21C | 64 (≈ 60.5 µM) | 0.125 (≈ 0.118 µM) | 1 (≈ 0.945 µM) | 0.25 (≈ 0.236 µM) | 1 (≈ 0.945 µM) | 16 (≈ 15.1 µM) | 32 (≈ 30.2 µM) | 4 (≈ 3.78 µM) | 128 (≈ 121 µM) | 0.25 (≈ 0.236 µM) | 128 | 1024 | 16 |  |  | 
CC[C@H]1OC(=O)[C@H](C)[C@@H](O[C@H]2C[C@@](C)(OC)[C@@H](OC(=O)NCc3cn(Cc4ccc(C)cc4)nn3)[C@H](C)O2)[C@H](C)[C@@H](O[C@@H]2O[C@H](C)C[C@H](N(C)C)[C@H]2O)[C@](C)(O)C[C@@H](C)CN(C)[C@H](C)[C@H]2OC(=O)O[C@@]21C | 64 (≈ 63.8 µM) | 0.25 (≈ 0.249 µM) | 2 (≈ 1.99 µM) | 1 (≈ 0.997 µM) | 1 (≈ 0.997 µM) | 64 (≈ 63.8 µM) | 64 (≈ 63.8 µM) | 4 (≈ 3.99 µM) | 128 (≈ 128 µM) | 1 (≈ 0.997 µM) |  |  |  |  |  | 
CC[C@H]1OC(=O)[C@H](C)[C@@H](O[C@H]2C[C@@](C)(OC)[C@@H](OC(=O)NCc3cn(Cc4ccc([N+](=O)[O-])cc4)nn3)[C@H](C)O2)[C@H](C)[C@@H](O[C@@H]2O[C@H](C)C[C@H](N(C)C)[C@H]2O)[C@](C)(O)C[C@@H](C)CN(C)[C@H](C)[C@@H](O)[C@]1(C)O | 32 (≈ 31.7 µM) | 0.03 (≈ 0.0298 µM) | 1 (≈ 0.992 µM) | 1 (≈ 0.992 µM) | 1 (≈ 0.992 µM) | 64 (≈ 63.5 µM) | 16 (≈ 15.9 µM) | 1 (≈ 0.992 µM) | 32 (≈ 31.7 µM) | 2 (≈ 1.98 µM) |  |  |  |  |  | 
CC[C@H]1OC(=O)[C@H](C)[C@@H](O[C@H]2C[C@@](C)(OC)[C@@H](OC(=O)NCc3cn(Cc4ccccc4C)nn3)[C@H](C)O2)[C@H](C)[C@@H](O[C@@H]2O[C@H](C)C[C@H](N(C)C)[C@H]2O)[C@](C)(O)C[C@@H](C)CN(C)[C@H](C)[C@@H](O)[C@]1(C)O | 64 (≈ 65.5 µM) | 0.03 (≈ 0.0307 µM) | 0.5 (≈ 0.512 µM) | 0.5 (≈ 0.512 µM) | 0.25 (≈ 0.256 µM) | 64 (≈ 65.5 µM) | 16 (≈ 16.4 µM) | 1 (≈ 1.02 µM) | 16 (≈ 16.4 µM) | 0.5 (≈ 0.512 µM) |  |  |  |  |  | 
CC[C@H]1OC(=O)[C@H](C)[C@@H](O[C@H]2C[C@@](C)(OC)[C@@H](OC(=O)NCc3cn(Cc4ccccc4Cl)nn3)[C@H](C)O2)[C@H](C)[C@@H](O[C@@H]2O[C@H](C)C[C@H](N(C)C)[C@H]2O)[C@](C)(O)C[C@@H](C)CN(C)[C@H](C)[C@@H](OC(=O)NCc2ccc(OC)cc2)[C@]1(C)O | 8 (≈ 6.89 µM) | < 0.002 | 0.06 (≈ 0.0517 µM) | 0.125 (≈ 0.108 µM) | 0.125 (≈ 0.108 µM) | 8 (≈ 6.89 µM) | 16 (≈ 13.8 µM) | 0.03 (≈ 0.0258 µM) | 32 (≈ 27.6 µM) | 0.03 (≈ 0.0258 µM) | 1024 - 2133 | 1024 - 2048 | 32 - 133 | 32 - 133 | 1024 - 2048 | 1024 - 2133
